Legend:
[1] = Noszal et al. 2000; cited from earlier work
children with autism = assay: 12-week placebo-controlled study of NAC: safety evaluation, adverse events (DOTES); type: in vivo, human
Excerpt: Primary behavioral outcome measures, include, for example, but are not limited to, (a) the Aberrant Behavior Checklist (ABC) irritability subscale; and (b) Dosage Record and Treatment Emergent Symptom Scale (DOTES), which provides information on the presence, frequency and severity of side effects (Guy, W., ECDEU Assessment Manual for Psychopharmacology, Rockville, Md., U.S. Department of Health, Education, and Welfare (1976)). Secondary behavioral outcome measures include, but are not limited to, (a) the Clinical Global Impression (CGI); (b) ABC-Stereotypy subscale; (c) Repetitive Behavior Scale (RBS); and (d) Social responsiveness scale (SRS).
After the screening phase, baseline measures were obtained from subjects continuing to meet inclusion and exclusion criteria. Subjects were then randomized to either placebo or active based on age and gender. As NAC is a nutritional supplement, the quality control is predictably variable and therefore purity is not as stringent as prescription medications. Therefore, in the present study, the stability of the compound was ascertained and the integrity of the active agent was protected by packaging each NAC doses in individual pockets. The active compound and matching placebo were provided by BioAdvantex Pharma, Inc. (Mississauga, Ontario, Canada). […] Subjects randomized to the active drug were initiated at the dose of 900 mg every day for the first 4 weeks, then 900 mg twice daily for 4 weeks and 900 mg three times daily for 4 weeks. (This dose selection was based on previously published studies for other psychiatric conditions (Grant, J. et al., Arch Gen Psychiatry, 66:468-475 (2009); Berk, M. et al., Biol Psychiatry, 64:361-368 (2008); Berk, M. et al., Bio Psychiatry, 64:468-475 (2008)) and the previous experience of our group in studies of children with cystic fibrosis). Alternatively, subjects were initiated at the dose of 900 mg per day, 1,800 mg per day, or 2,700 mg per day of NAC. Alternatively, the subjects were initiated at the dose ranging from 900 mg per day to 2,700 mg per day of NAC.
If a subject could not tolerate a specific dose, s/he would be maintained at the highest tolerated dose. Subjects were evaluated at baseline, week 4, week 8 and week 12. The Aberrant Behavioral Checklist (ABC) (Aman, M. et al., Am J Ment Defic. 89:492-502 (1985)), the Clinical Global Impressions (CGI) (Guy, W., ECDEU Assessment Manual for Psychopharmacology, Rockville, Md., U.S. Department of Health, Education, and Welfare (1976)), and the Dosage Record and Treatment Emergent Symptom Scale (DOTES) (Guy, W., 1976, ECDEU Assessment Manual for Psychopharmacology, Rockville, Md., U.S. Department of Health, Education, and Welfare) were obtained in each visit. Additional secondary measures were obtained at baseline and at week 12 and included the social responsiveness scale (SRS) (Constantino, J. et al., J. Dev Behav Pediatr., 21:2-11 (2000); Constantino, J. et al., J Autism Dev Disord., 33:427-433 (2003)), and the repetitive behavior scale-revised (RBS-R) (Bodfish, J. et al., The Repetitive Behavior Scale: A test manual (1998)).
The following adverse events (AEs) were more frequently reported in the NAC group than the placebo group, but differences were not statistically different (all p>0.100): depressed affect (1 vs. 0), akathisia (1 vs. 0), constipation (3 vs. 2), nausea/vomiting (6 vs. 3), increased appetite (2 vs. 0), diarrhea (3 vs. 1). The following AEs were reported more in the placebo group than the NAC group: excitement/agitation (3 vs. 2), increased motor activity (3 vs. 2), nasal congestion (6 vs. 4), decreased appetite (3 vs. 2), tremor (1 vs. 0), sweating (1 vs. 0), syncope/dizziness (1 vs. 0), increased salivation (2 vs. 0). One subject in each group reported insomnia and stomachache.

[2] = NAC group, same in placebo group

## CC(=O)N[C@@H](CS)C(=O)O [NAC, N-acetylcysteine]
[1]
  half-cell potential of the NAC thiol/disulfide pair: about +63 mV
Children with autism; 12-week study, up to 900 mg three times daily
  side effects observed, overall: Minimal side effects
Children with autism; NAC group, placebo 0, p>0.100
  adverse event reported: akathisia (count): 1
  adverse event reported: depressed affect (count): 1
  adverse event reported: increased appetite (count): 2
Children with autism; NAC group, placebo 1
  adverse event reported: sweating (count): 0
  adverse event reported: syncope/dizziness (count): 0
  adverse event reported: tremor (count): 0
Children with autism; NAC group, placebo 1, p>0.100
  adverse event reported: diarrhea (count): 3
Children with autism; NAC group, placebo 2
  adverse event reported: increased salivation (count): 0
Children with autism; NAC group, placebo 2, p>0.100
  adverse event reported: constipation (count): 3
Children with autism; NAC group, placebo 3
  adverse event reported: decreased appetite (count): 2
  adverse event reported: excitement/agitation (count): 2
  adverse event reported: increased motor activity (count): 2
Children with autism; NAC group, placebo 3, p>0.100
  adverse event reported: nausea/vomiting (count): 6
Children with autism; NAC group, placebo 6
  adverse event reported: nasal congestion (count): 4
Children with autism; [2]
  adverse event reported: insomnia (subjects): One
  adverse event reported: stomachache (subjects): One
Children with autism; active group, later medical evaluation revealed severe constipation
  subjects with worsening of baseline agitation and irritability requiring early termination: one
